Values of other authors as cited in patent US20040052761A1, “Localized delivery system for cancer drugs, phenstatin, using N-isopropylacrylamide” (priority 2002, published 2004).

Assays:
tubulin [1] = conditions: reference (1)
tubulin [2] = conditions: reference (1); remark: listed apart in the source

## COc1ccc(C(=O)c2cc(OC)c(OC)c(OC)c2)cc1O [Phenstatin]
Tubulin [1]
  inhibition of tubulin polymerization: potent inhibitor
Tubulin [2]
  inhibition of the binding of colchicines to tubulin: potent inhibitor
